Data published in patent US12570638B2, “Fused imidazole derivatives as AHR antagonists” (Sail Biomedicines, Inc., priority 2020, dated 2026).

Columns and labels:
[1] = Liver Microsome Stability Assay, human; format: in vitro ADME; conditions: human liver microsomes, with NADPH, 1 μM compound, read-out: Human liver microsome clearance
Description: The master solution was prepared according to Table 6.
Two separate experiments were performed as follows.
With Cofactors (NADPH): 25 μL of 10 mM NADPH was added to the incubations. The final concentrations of microsomes and NADPH were 0.5 mg/mL and 1 mM, respectively. The final concentration of microsomes was 0.5 mg/mL. The mixture was pre-warmed at 37° C. for 10 minutes. The reaction was started with the addition of 2.5 μL of 100 μM control compound or test compound solutions. Verapamil was used as positive control in this study. The final concentration of test compound or control compound was 1 μM. The incubation solution was incubated in water batch at 37° C. Aliquots of 25 μL were taken from the reaction solution at 0.5, 5, 15, 30 and 60 minutes. The reaction was stopped by the addition of 5 volumes of cold acetonitrile with IS (200 nM caffeine and 100 nM tolbutamide). Samples were centrifuged at 3, 220 g for 40 minutes. Aliquot of 100 μL of the supernatant was mixed with 100 μL of ultra-pure H2O and then used for LC-MS/MS analysis.
Data Analysis: All calculations were carried out using Microsoft Excel. Peak areas were determined from extracted ion chromatograms. The slope value, k, was determined by linear regression of the natural logarithm of the remaining percentage of the parent drug vs. incubation time curve.
The in vitro half-life (in vitro t1/2) was determined from the slope value: in vitro t1/2=−([…]/k)
Conversion of the in vitro t1/2 (min) into the in vitro intrinsic clearance (in vitro CLint, in μL/min/mg protein) was done using the following equation (mean of duplicate determinations):
The calculations of Scaled-up CLint (mL/min/kg), Predicted CLH (mL/min/kg) and EH were done using the following equation: Scaled-up CLint=(0.693/t1/2)×(1/(microsomal protein concentration(0.5 mg/mL)))×Scaling Factors; Predicted CLH=(QH×Scaled-up CLint×fub)/(QH+Scaled-up CLint×fub); EH=Predicted CLH/QH • where QH is the hepatic blood flow (mL/min/kg) (Table 7), • fub is the fraction of unbound drug in plasma which is assumed to be 1. […]

[2] = Caco-2 Permeability Assay; format: in vitro ADME; conditions: human; for Papp A→B at 2 h, 1 μM: Caco-2, pH 7.4, apical to basolateral, read-out: Caco2 Papp (AB); for Papp B→A at 2 h, 1 μM: Caco-2, pH 7.4, basolateral to apical, read-out: Caco2 Papp (BA)
Description: Preparation of Caco-2 Cells: 50 μL and 25 mL of cell culture medium were added to each well of the Transwell insert and reservoir, respectively. The HTS transwell plates were incubated at 37° C., 5% CO2 for 1 hour before cell seeding. Caco-2 cells were diluted to 6.86×10^5 cells/mL with culture medium and 50 μL of cell suspension were dispensed into the filter well of the 96-well HTS Transwell plate. Cells were cultivated for 14-18 days in a cell culture incubator at 37° C., 5% CO2, 95% relative humidity. Cell culture medium was replaced every other day, beginning no later than 24 hours after initial plating.
Assessment of Cell Monolayer Integrity: Medium was removed from the reservoir and each Transwell insert and replaced with prewarmed fresh culture medium. Transepithelial electrical resistance (TEER) across the monolayer was measured using Millicell Epithelial Volt-Ohm measuring system (Millipore, USA). The Plate was returned to the incubator once the measurement was done. The TEER value was calculated according to the following equation: TEER measurement (ohms)×Area of membrane (cm^2)=TEER value (ohm·cm^2)
TEER value should be greater than 230 ohm·cm^2, which indicates the well-qualified Caco-2 monolayer.
Preparation of Solutions: 2 mM stock solutions in DMSO of control compounds were prepared and diluted with HBSS (10 mM HEPES, pH 7.4) to get 10 μM working solution. 0.2 mM stock solutions of test compounds in DMSO were prepared and diluted with HBSS (10 mM HEPES, pH 7.4 with 0.5% BSA) to get 1 μM working solution. Metoprolol, erythromycin and cimetidine were used as control compounds.
Performing the Drug Transport Assay: The Caco-2 plate was removed from the incubator. The monolayer was washed twice with pre-warmed HBSS (10 mM HEPES, pH 7.4). The plate was incubated at 37° C. for 30 minutes. To determine the rate of drug transport in the apical to basolateral direction, 125 μL of the working solution was added to the Transwell insert (apical compartment). A 50 μL sample was transferred immediately from the apical compartment to 200 μL of acetonitrile containing IS (100 nM alprazolam, 200 nM Caffeine and 100 nM tolbutamide) in a new 96-well plate as the initial donor sample (A-B) and it was vortexed at 1000 rpm for 10 minutes. The wells in the receiver plate (basolateral compartment) were filled with 235 μL of transport buffer. To determine the rate of drug transport in the basolateral to apical direction, 285 μL of the working solution were added to the receiver plate wells (basolateral compartment). […]
Data analysis: All calculations were carried out using Microsoft Excel. Peak areas were determined from extracted ion chromatograms. […]

CLint scaled at 1 μM [1] | Papp A→B at 2 h, 1 μM [2] | Papp B→A at 2 h, 1 μM [2] | Structure (SMILES)
< 10 mL/min/kg | > 10 ×10⁻⁶ cm/s | > 10 ×10⁻⁶ cm/s | Cn1nccc1C(=O)Nc1ccc2nc(-c3ccccc3C(F)(F)F)[nH]c2c1 [A, 1-methyl-N-(2-(2-(trifluoromethyl)phenyl)-1H-benzo[d]imidazol-6-yl)-1H-pyrazole-5-carboxamide]
< 10 mL/min/kg | > 10 ×10⁻⁶ cm/s | > 10 ×10⁻⁶ cm/s | Cn1ncnc1C(=O)Nc1ccc2nc(-c3ccccc3C(F)(F)F)[nH]c2c1 [Compound H, 1-methyl-N-(2-(2-(trifluoromethyl)phenyl)-1H-benzo[d]imidazol-6-yl)-1H-1,2,4-triazole-5-carboxamide]
